# Calls of active or inactive are those of the source. The calls are words filed in the database; no cut-off is given here.
# Experiments:
# SK-HEP1 = assay: Upregulation of TIMP4 expression in human SK-HEP1 cells at 1 to 25 uM by Western blotting analysis; assay type: functional, cell-based; details: dose 1-25 µM
# HepG2 = assay: Downregulation of miR-221 expression in human HepG2 cells at 10 uM incubated for 6 hrs by qRT-PCR analysis; assay type: functional
# MHCC97-L = assay: Downregulation of miR-18a expression in human MHCC97-L cells at 10 uM by qRT-PCR analysis; assay type: functional, cell-based
structure (smiles),measurement,setting,value
CCOC(=O)c1nc(-c2ccc(OC)cc2)oc1C,Activity,SK-HEP1,Active
same,Activity,HepG2,60%
same,Activity,MHCC97-L,Active
